Measured values taken from ChEMBL document CHEMBL2331239, “Inhibiting NF-κB-inducing kinase (NIK): discovery, structure-based design, synthesis, structure-activity relationship, and co-crystal structures” (Bioorg Med Chem Lett, 2013).
pIC50: −log10 of the molar value.

Target: T1, Mitogen-activated protein kinase kinase kinase 14 (Homo sapiens, UniProt Q99558)
Assay: Inhibition of NIK (unknown origin) autophosphorylation after 1 hr by chemiluminescent assay

T1 sequence (Q99558 whole entry): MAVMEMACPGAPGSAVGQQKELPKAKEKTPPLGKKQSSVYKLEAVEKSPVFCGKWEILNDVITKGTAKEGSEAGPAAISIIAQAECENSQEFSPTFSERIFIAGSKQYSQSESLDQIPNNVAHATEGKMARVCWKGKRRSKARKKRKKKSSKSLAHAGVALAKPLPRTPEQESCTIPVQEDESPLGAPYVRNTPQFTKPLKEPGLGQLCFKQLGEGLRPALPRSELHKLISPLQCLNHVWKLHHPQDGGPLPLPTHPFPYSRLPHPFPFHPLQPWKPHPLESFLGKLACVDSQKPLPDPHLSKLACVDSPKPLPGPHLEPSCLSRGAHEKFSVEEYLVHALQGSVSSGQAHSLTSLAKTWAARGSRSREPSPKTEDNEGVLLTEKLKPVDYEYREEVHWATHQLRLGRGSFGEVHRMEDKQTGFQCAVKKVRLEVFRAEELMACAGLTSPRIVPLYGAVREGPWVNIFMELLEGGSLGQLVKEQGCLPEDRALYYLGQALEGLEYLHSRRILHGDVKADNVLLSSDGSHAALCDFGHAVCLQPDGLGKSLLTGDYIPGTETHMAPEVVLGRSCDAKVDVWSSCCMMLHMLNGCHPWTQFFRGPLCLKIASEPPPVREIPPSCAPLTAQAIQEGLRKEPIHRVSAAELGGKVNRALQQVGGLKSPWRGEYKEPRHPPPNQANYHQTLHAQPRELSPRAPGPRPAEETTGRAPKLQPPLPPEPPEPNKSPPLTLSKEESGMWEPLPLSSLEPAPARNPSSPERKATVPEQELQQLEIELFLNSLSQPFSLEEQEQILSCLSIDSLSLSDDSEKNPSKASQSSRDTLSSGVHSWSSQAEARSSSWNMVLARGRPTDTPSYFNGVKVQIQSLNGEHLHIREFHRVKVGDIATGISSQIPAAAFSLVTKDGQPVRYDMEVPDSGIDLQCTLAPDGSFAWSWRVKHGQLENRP

pIC50 | Compound
5.74 | Nc1nccc(-c2c[nH]c3ccc(F)cc23)n1
< 4.10 | Cc1ccn2c(-c3ccnc(N)n3)c(C)nc2c1
5.92 | Nc1ncc2c(n1)-c1c([nH]c3ccc(Cl)cc13)CC2
7.05 | Nc1nccc(-n2ccc3ccc(Br)cc32)n1
4.52 | Cc1cnc(N)nc1-c1c(C)[nH]c2ccc(Cl)cc12
4.52 | Nc1ncc2c(n1)-c1c([nH]c3ccc(C#Cc4cccnc4)cc13)CCC2
4.38 | Cc1ccc2nc(C)c(-c3ccnc(N)n3)n2c1
7.00 | Nc1ncc2c(n1)-c1c([nH]c3ccc(Br)cc13)CCC2
6.51 | Nc1nccc(-n2cnc3ccc(Cl)cc32)n1
6.52 | Cc1[nH]c2ccc(Cl)cc2c1-c1ccnc(N)n1
4.39 | Nc1nccc(-c2c[nH]c3ccccc23)n1
5.59 | Nc1ncc2c(n1)-c1c[nH]c3ccc(Cl)c(c13)CC2
6.96 | Cc1cnc(N)nc1-c1c[nH]c2ccc(Cl)cc12
4.68 | Nc1ncc2c(n1)-c1c([nH]c3ccc(Cl)cc13)CCCC2
7.12 | Nc1nccc(-n2ccc3ccc(Cl)cc32)n1
7.20 | N#Cc1ccc2[nH]cc(-c3ccnc(N)n3)c2c1
6.72 | Nc1nccc(-c2cnc3ccc(Br)cn23)n1
4.52 | Cn1cncc1C#Cc1ccc2[nH]c3c(c2c1)-c1nc(N)ncc1CCC3
4.62 | COc1ccc2[nH]cc(-c3ccnc(N)n3)c2c1
6.82 | Nc1nccc(-c2c[nH]c3ccc(Cl)cc23)n1
5.40 | Cc1nc2ccc(Cl)cc2n1-c1ccnc(N)n1
4.62 | CC(O)c1ccc(-c2ccc3[nH]c4c(c3c2)-c2nc(N)ncc2CCC4)cc1 (stereo not drawn)
6.22 | Cc1nc2ccc(Cl)cn2c1-c1ccnc(N)n1
7.15 | Nc1ncc2c(n1)-c1c([nH]c3ccc(Cl)cc13)CCC2
6.26 | Nc1nccc(N2CCc3ccc(Br)cc32)n1
7.20 | N#Cc1ccc2ccn(-c3ccnc(N)n3)c2c1
< 4.10 | Cc1nc2ccccn2c1-c1ccnc(N)n1
4.82 | CC(O)c1ccc(-c2ccc3[nH]c4c(c3c2)-c2nc(N)ncc2CCC4)s1 (stereo not drawn)
< 4.10 | Cc1nc2c(C)cccn2c1-c1ccnc(N)n1

Compound | pIC50
COCCOc1cnc(N)nc1-c1c[nH]c2ccc(C#CC(C)(C)O)cc12 | 7.40

Target: T1, Mitogen-activated protein kinase kinase kinase 14
Assay: Inhibition of NIK in human HT-29 cells assessed as LTalpha/beta2-induced p100 processing to NFkappaB2 preincubated for 30 mins before LTalpha/beta2 stimulation measured after 5 hrs
Format: cell-based

pIC50 | Compound
5.34 | Nc1ncc2c(n1)-c1c([nH]c3ccc(Br)cc13)CCC2
4.80 | Cc1nc2ccc(Cl)cn2c1-c1ccnc(N)n1

Compound | pIC50
COCCOc1cnc(N)nc1-c1c[nH]c2ccc(C#CC(C)(C)O)cc12 | 7.70
